Results reported in patent publication US6437146B1, “Oxazole compounds as prostaglandin e2 agonists or antagonists” (Fujisawa Pharmaceutical Co., Ltd., priority 1998, dated 2002).

Columns and labels:
[1] = target: T1, prostanoide receptor subtype (human EP4) (Homo sapiens, UniProt P35408); test: Binding assay using expression of prostanoide receptor subtype ([3H]-PGE2, membrane fraction of transfected COS-7 cells); details: test compound 1.0 × 10^−7M; [3H]-PGE2 binding, COS-7 membrane, human EP4, 1 hour at 30° C.
T1 construct: expressed in transfected cells; host or cells: COS-7 cells (membrane fraction)
T1 sequence (P35408 whole entry): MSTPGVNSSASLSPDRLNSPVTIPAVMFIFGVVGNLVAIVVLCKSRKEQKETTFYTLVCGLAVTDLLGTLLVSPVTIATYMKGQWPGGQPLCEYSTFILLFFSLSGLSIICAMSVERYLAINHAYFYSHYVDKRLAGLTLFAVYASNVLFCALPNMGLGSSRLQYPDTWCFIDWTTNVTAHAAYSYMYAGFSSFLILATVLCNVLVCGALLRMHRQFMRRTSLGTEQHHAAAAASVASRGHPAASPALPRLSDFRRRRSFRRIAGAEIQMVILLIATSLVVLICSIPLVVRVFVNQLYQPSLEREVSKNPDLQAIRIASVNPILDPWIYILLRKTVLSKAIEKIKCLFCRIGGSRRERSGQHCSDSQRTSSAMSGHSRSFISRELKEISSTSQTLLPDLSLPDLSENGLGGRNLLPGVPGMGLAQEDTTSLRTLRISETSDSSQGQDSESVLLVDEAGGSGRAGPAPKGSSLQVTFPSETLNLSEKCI
Method: Binding Assay Using Expression of Prostanoide Receptor Subtype
The membrane fraction was prepared using COS-7 cells transfected prostanoide receptor subtype (human EP4).
The standard assay mixture contained membrane fraction, [^3H]-PGE2 in final volume of 0.25 ml was incubated for 1 hour at 30° C. The reaction was terminated by that the mixture was rapidly filtered through a glass filter (GF/B). Then the filter was washed by 4ml of ice-cold buffer at two times. The radioactivity associated with the filter was measured by liquid scintillation counting.
In the experiment for competition of specific [^3H]-PGE2 was added at a concentration of 10 μM. The following buffer was used in all reactions.
Buffer: 20 mM Mes (pH 6.0), 1 mM EDTA, 10 mM MgCl2

[2] = system: Mesangial Proliferative Glomerulonephritis Model; test: Mesangial proliferative glomerulonephritis model (OX-7 mAb i.v.), urinary protein; format: in vivo; details: 24 h urine 1 day after OX-7, female Wistar rats, Normal 40.8 ± 2.3, Control 127.9 ± 12.6
Method: Methods of Mesangial Proliferative Glomerulonephritis Model
Female Wistar rats, 6 weeks old were purchased from SLC (Shizuoka, Japan). Glomerulosclerosis model was produced by intravenous injections (i.v.) of the monoclonal antibody (mAb), MRC OX-7 (Dainippon Co. Ltd., Osaka, Japan). The 8 weeks old rats were divided into 4 groups (10 rats/group). Group 1 was injected saline instead of OX-7 as a normal group and treated with vehicle (0.5% methylcellulose solution) only. Group 2 was also treated with the vehicle only after the injection of 1 mg/kg OX-7 as a control group. Group 3 and Group 4 were treated with N-benzylsulfonyl-3-{[(1S)-2-(4,5-diphenyloxazol-2-yl)-2-cyclohexen-1-yl]methyl}benzamide (Example 2-75), as shown in the following Table. The compound was orally given every day from 5 days before to one day after i.v. administration of the antibody. Urine was collected for 24 hours from the rats in metabolic cages 1 day after injection of OX-7 and the amount of protein in each sample was determined by the biuret method using bovine serum albumine as the standard. All the rats were sacrificed 2 days after injection of OX-7. Blood biochemical analysis was carried out. [drawing 11]

SMILES | Inhibition (%) [1] | inhibition at 0.1 µM [1] [%] | Urinary Protein ([2]; 1 mg/kg orally every day from 5 days before to one day after OX-7) [mg/day] | Urinary Protein ([2]; 10 mg/kg orally every day from 5 days before to one day after OX-7) [mg/day]
O=C(NCC(O)c1ccccc1)c1cccc(C[C@@H]2CCC[C@H]2c2nc(-c3ccccc3)c(-c3ccccc3)o2)c1 (stereo partly drawn) [Example 1-47, N-[(2-hydroxy-2-phenyl)ethyl]-3-{[(1S,2R)-2-(4,5-diphenyloxazol-2-yl)-1-cyclopentyl]methyl}benzamide] | ≧80% | – | – | –
O=C(NCC(c1ccccc1)c1ccccc1)c1cccc(C[C@@H]2CCC[C@H]2c2nc(-c3ccccc3)c(-c3ccccc3)o2)c1 [Example 1-50, N-(2,2-diphenylethyl)-3-{[(1S,2R)-2-(4,5-diphenyloxazol-2-yl)-1-cyclopentyl]methyl}benzamide] | – | ≥ 80 | – | –
O=C(NOCc1ccccc1)c1cccc(C[C@@H]2CCCC=C2c2nc(-c3ccccc3)c(-c3ccccc3)o2)c1 [Example 2-46, N-benzyloxy-3-{[(1S)-2-(4,5-diphenyloxazol-2-yl)-2-cyclohexen-1-yl]methyl}benzamide] | – | ≥ 80 | – | –
O=C(NS(=O)(=O)Cc1ccccc1)c1cccc(C[C@@H]2CCCC=C2c2nc(-c3ccccc3)c(-c3ccccc3)o2)c1 [Example 2-75, N-benzylsulfonyl-3-{[(1S)-2-(4,5-diphenyloxazol-2-yl)-2-cyclohexen-1-yl]methyl}benzamide] | – | ≥ 80 | 98.2 ± 20.9 | 66.4 ± 6.9
